Peptide text beside a SMILES is read from it.
Assays:
[1] = molecular target: Nb127; experiment: SPR analysis of 127-tag binding to immobilized Nb127-biotin; conditions: Biacore T200, Nb127-biotin on streptavidin chip, 127 tag 400-6.25 nM, PBS pH 7.4 + 0.05% P20, 1:1 kinetics binding model
Experimental: (§1) SPR biosensor analysis was conducted on a Biacore T200 instrument (Cytiva) using a Series S Sensor Chip SA (streptavidin; Cytiva, #29104992) to determine Nb–tag binding affinity. All binding analyses were done in degassed SPR running buffer (1X PBS at pH 7.4 plus 0.05% P20). Biotinylated Nbs (Nb6E or Nb127), produced by sortagging reaction, was captured on SA chip where streptavidin is covalently coupled to dextran matrix. Biotinylated Nb (1 μM) was immobilized on flow cell via biotin–streptavidin interaction to reach a target response value of approximately 2000 response units. A separate flow cell was capped with only SPR running buffer to use as a surface control for nonspecific binding.
(§2) Analyte samples (127-tag peptide or mutant-6E peptides) were prepared as serial dilutions in SPR running buffer. Analyte was flowed over the chip at 50 μl/min with a contact time of 60 s and a dissociation time of 120 s. A duplicate injection of one concentration and a buffer injection (blank) were used for assessing chip surface performance and double referencing, respectively. […] Kinetic constants and KD values (M) were calculated from local fittings using 1:1 kinetics binding model for peptide (analyte) binding to Nb–biotin on the BIAevaluation software (Cytiva).

[2] = system: Nb6E; experiment: SPR analysis of 6E variant peptides binding to immobilized Nb6E-biotin
Experimental: as §1, §2

[3] = system: Nb6E (A2AR-Nb6E-ALFA) on HEK293 cells; experiment: Flow cytometry competition binding against FAM-6E-C14 on HEK293 cells; parameters: species or system human; conditions: peptides 10-0.01 μM vs 10 nM FAM-6E-C14, 30 m, median AF647 fluorescence
Experimental: Human embryonic kidney 293 cells stably expressing a cell surface protein fused with Nb6E (A2AR-Nb6E-ALFA, described previously ([25])) were cultured in Dulbecco's modified Eagle's media containing 10% fetal bovine serum (Thermo; #A5256801) and 1X penicillin–streptomycin (Thermo; #15140-122). Binding assays were performed as described previously ([25]). Briefly, cells were suspended in 2% bovine serum albumin (BSA) in 1X PBS (w/v) (BSA-PBS) with variable concentrations of unlabeled variant 6E peptides (10–0.01 μM) and 10 nM fluorescein-labeled 6E peptide (FAM-6E-C14) for 30 m followed by 2x washing with BSA-PBS, and subsequent staining with antifluorescein Ab conjugated with AlexaFluor647 (1.5:1000 dilution in BSA-PBS; Jackson ImmunoResearch; #200-602-037). Cells were incubated again for 30 m, pelleted, washed, and analyzed by flow cytometry on a CytoFlex flow cytometer (Beckman Coulter). Cell labeling intensity was monitored in the FL4-APC channel. Live cells were identified and gated based on forward scatter–side scatter profile. […] Median fluorescence intensity for cell counts observed in the APC channel for each sample was calculated from histograms. Median fluorescence intensity values obtained from technical replicates of the same sample were averaged and plotted against the corresponding concentration of the variant 6E peptide.

[4] = system: Nb6E; conditions: cited from earlier work

Row | Structure (SMILES) | Kd [1] [nM] | rank of binding affinities (SPR) [2] [E-M9 > 6E-WT > 6E-F9] | rank of binding affinities (competition binding assay) [3] [E-M9 > 6E-WT > 6E-F9] | experimental binding to Nb6E (earlier work) [4]
1 | NCCCC[C@H](NC(=O)[C@H](Cc1c[nH]c2ccccc12)NC(=O)[C@H](Cc1ccccc1)NC(=O)[C@H](CC(=O)O)NC(=O)[C@H](CCC(=O)O)NC(=O)[C@H](Cc1ccccc1)NC(=O)[C@@H](N)CO)C(=O)NCC(=O)N[C@@H](CCC(=O)O)C(=O)N[C@@H](CC(=O)O)C(N)=O [127-tag] (H-SFEDFWKGED-NH2) | 14 | – | – | –
2 | CC[C@H](C)[C@H](NC(=O)[C@H](CCC(N)=O)NC(=O)[C@H](CCCNC(=N)N)NC(=O)[C@H](C)NC(=O)[C@H](CCSC)NC(=O)[C@H](CCC(=O)O)NC(=O)[C@H](CCCCN)NC(=O)[C@H](C)NC(=O)[C@H](CCC(=O)O)NC(=O)[C@H](CCC(N)=O)NC(=O)[C@H](CC(=O)O)NC(=O)[C@H](C)NC(=O)[C@H](CCC(N)=O)NC(=O)CNC(=O)CNC(=O)CN)C(=O)N[C@@H](CO)C(N)=O [6E-M9] (H-GGGQADQEAKEMARQIS-NH2) | – | 6 | 6 | –
3 | CC[C@H](C)[C@H](NC(=O)[C@H](CCC(N)=O)NC(=O)[C@H](CCCNC(=N)N)NC(=O)[C@H](C)NC(=O)[C@H](CC(C)C)NC(=O)[C@H](CCC(=O)O)NC(=O)[C@H](CCCCN)NC(=O)[C@H](C)NC(=O)[C@H](CCC(=O)O)NC(=O)[C@H](CCC(N)=O)NC(=O)[C@H](CC(=O)O)NC(=O)[C@H](C)NC(=O)[C@@H](N)CCC(N)=O)C(=O)N[C@@H](CO)C(N)=O [6E-L9 (WT)] (H-QADQEAKELARQIS-NH2) | – | 6 | 6 | substantially higher affinity than the 6E-A9 variant

Reference: PMC12212259, “Evaluation of AlphaFold modeling for elucidation of nanobody–peptide epitope interactions” (The Journal of Biological Chemistry, 2025)
